Laboratory results reported in PMC8264504, “Identification of Koumine as a Translocator Protein 18 kDa Positive Allosteric Modulator for the Treatment of Inflammatory and Neuropathic Pain” (Frontiers in Pharmacology, 2021).
Read-outs that look alike come from different tables or passages of the source. One block for each molecule: values may come before it.

Key:
[1] = target: T1, TSPO from rat cerebral cortex (Rattus norvegicus, UniProt P16257); assay: 3H-PK11195 saturation binding; settings: 0.125–32 nM, 4°C, 2 h
T1 construct: male SD rats (240 ± 10 g) were killed by decapitation, and the cerebral cortices were dissected; from tissue; host or cells: rat (SD) cerebral cortex, crude mitochondrial/membrane pellet
T1 sequence (P16257 whole entry): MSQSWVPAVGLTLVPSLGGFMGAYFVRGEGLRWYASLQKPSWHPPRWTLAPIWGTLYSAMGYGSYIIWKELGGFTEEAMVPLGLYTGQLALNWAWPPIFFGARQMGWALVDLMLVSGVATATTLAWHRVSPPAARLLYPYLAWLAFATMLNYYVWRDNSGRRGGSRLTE
Method: After incubating at 4°C for 2 h, the reaction was terminated by the addition of ice-cold 50 mM Tris HCl buffer (pH 7.4) followed by vacuum filtration through Filtermat A glass microfiber filters (pretreated with 0.2% polyethylenimine) using a Brandel cell harvester. The filters were washed rapidly, and radioactivity was determined by liquid scintillation spectrometry.

[2] = target: T1, TSPO from rat cerebral cortex; assay: 3H-PK11195 dissociation kinetics; type: binding; settings: vehicle; dissociation induced by 10 μM PK11195, 4°C
Method: Briefly, male SD rats (240 ± 10 g) were killed by decapitation, and the cerebral cortices were dissected. The tissues were homogenized in 10 volumes (ml/g) of 50 mM Tris HCl buffer containing 0.32 M sucrose (pH 7.4). The homogenates were centrifuged at 1,000 g for 10 min at 4°C. The resulting pellets were discarded, and the supernatants were centrifuged at 9,000 g for 15 min. The pellets were resuspended in 10 volumes of Tris HCl buffer containing 0.32 M sucrose (pH 7.4) and centrifuged at 13,000 g for 30 min, then resuspended in 10 volumes of Tris HCl buffer and centrifuged again at 13,000 g for 30 min. The final pellets were suspended in Tris HCl buffer and used in the binding assays. Protein concentrations were measured using the BCA Protein Assay Kit (ThermoFisher Scientific) according to the manufacturer’s instructions.
Then, samples were filtered through Filtermat A glass microfiber filters (pretreated with 0.2% polyethylenimine) using a Brandel cell harvester, and the radioactivities were measured at the indicated time points.

[3] = target: T2, mouse TSPO recombinant protein (TSPO proteoliposomes) (Mus musculus, UniProt P50637); assay: SPR single-cycle kinetics on TSPO proteoliposomes; type: binding
T2 construct: His tag; made in house; host or cells: Escherichia coli BL21(DE3) pLysS, pET15b vector
Method: (§1) Cells of the BL21(DE3) pLysS Escherichia coli strain were transformed with the pET15b vector, from which the expression of mouse TSPO recombinant protein was induced by 1 mM isopropyl-1-thiol-β-D-galactopyranoside as previously described ([Robert and Lacapère, 2010]; [Senicourt et al., 2017]). Cells were harvested and resuspended in lysis buffer (150 mM NaCl and 50 mM HEPES-Na, pH 7.8) with the addition of 1 mg/ml lysozyme and sonicated thoroughly. The lysate was centrifuged at 15,000 g at 4°C for 20 min to pellet the insoluble inclusion bodies. The final pellet of inclusion bodies was solubilized in binding buffer (150 mM NaCl, 50 mM HEPES-Na, 1% SDS (wt/vol), pH 7.8) and was purified by the Ni-NTA gravity flow column.
Proteoliposomes composed of DMPC/DMPE (9:1) and TSPO in a 5:1 (wt/wt) ratio were prepared using a previously described method ([Ostuni et al., 2010]). Liposomes composed of DMPC/DMPE (9:1) were prepared as published previously ([Hatty et al., 2014]). A few milligrams of DMPC and DMPE were weighed into a round-bottom glass flask, and chloroform and methanol were added to dissolve them. A thin lipid film was prepared by a rotary evaporator and dried under vacuum for at least 3 h to remove all traces of chloroform and methanol. The dry lipid film was resuspended in PBS buffer (10 mM phosphate buffer, 2.7 mM KCl, 137 mM NaCl) to a concentration of 1 mg/ml, hydrated for 2 h at 45–55°C, and finally sonicated to produce small unilamellar vesicles. The suspension of small unilamellar vesicles was then kept at 45°C for use on the same day. The sizes of proteoliposomes and liposomes were determined by dynamic light scattering using Nicomp 380 Z3000 instrument (Parficle Sizing Systems, America).
SPR analyses were performed at 25°C with a Biacore T200 instrument. For proteoliposomes and liposomes (reference), they were immobilized on a series S L1 sensor chips. It is possible that the repeated regeneration steps in the multicycle kinetics process impairs the activity of TSPO proteoliposomes, thus we were unable to use multicycle kinetics to effectively determine the affinity of TSPO and its ligands. Therefore, the single cycle kinetics, which assumes to be as robust as the classical multicycle kinetics for measuring affinity, was used. Kinetic rate constants for the various analytes were determined using single cycle protocols where five serial 2-fold dilutions of the analytes were injected for 180 s without intervening regeneration, followed by a 300 s dissociation phase after the last injection. Interactions were measured at 30 μl/min. PBS, with addition of 1% DMSO (pH 7.4), was used as running buffer. […] For mouse TSPO in a lipid-free environment, affinity was measured according to established methods with minor modifications ([Zhang et al., 2015]). […]

[4] = target: T3, mouse TSPO recombinant protein (Mus musculus, UniProt P50637); assay: SPR multicycle kinetics, mouse TSPO in a lipid-free environment; type: binding; settings: CM5 chip, anti-His capture, read-out: affinity to mouse TSPO
T3 construct: made in house; host or cells: Escherichia coli BL21(DE3) pLysS, pET15b vector
Method: as §1
SPR analyses were performed at 25°C with a Biacore T200 instrument. For proteoliposomes and liposomes (reference), they were immobilized on a series S L1 sensor chips. It is possible that the repeated regeneration steps in the multicycle kinetics process impairs the activity of TSPO proteoliposomes, thus we were unable to use multicycle kinetics to effectively determine the affinity of TSPO and its ligands. Therefore, the single cycle kinetics, which assumes to be as robust as the classical multicycle kinetics for measuring affinity, was used. Kinetic rate constants for the various analytes were determined using single cycle protocols where five serial 2-fold dilutions of the analytes were injected for 180 s without intervening regeneration, followed by a 300 s dissociation phase after the last injection. Interactions were measured at 30 μl/min. PBS, with addition of 1% DMSO (pH 7.4), was used as running buffer. Three consecutive 1 min injections with 10 μl/min of glycine HCl 3.0 at the end of each single-cycle kinetics regenerated the chip. For mouse TSPO in a lipid-free environment, affinity was measured according to established methods with minor modifications ([Zhang et al., 2015]). Briefly, HBS-EP buffer was used as the running buffer. […]

[5] = system: T98G human glioblastoma cells; assay: Cell proliferation assay (BrdU ELISA); type: cell-based; settings: 48 h
Method: T98G cells were plated at 1 × 10^4 cells/well in 96-well plates. […] After 48 h of drug exposure, proliferation was indexed using a BrdU ELISA Kit (Roche Molecular Diagnostics) according to the manufacturer’s protocol, and absorption was measured at 370 nm (reference wavelength 492 nm).

[6] = system: T98G human glioblastoma cells; assay: Cell viability assay (CellTiter Blue); type: cell-based; settings: same dosing regimen as proliferation, 48 h
Method: T98G cells were plated and treated as in the proliferation assays. After 48 h of drug exposure, CellTiter Blue Reagent (Promega) was added to the cells and incubated for 4 h in 5% CO2 at 37°C. Absorption was measured at 570 nm using 600 nm as a reference wavelength.

rat C6 glioma cells = assay: Pregnenolone production; type: cell-based; settings: 2 h
[7] = system: postoperative pain model of rats; design: method as in Xiong et al., 2017; settings: ref Xiong et al., 2017, cited from earlier work
TSPO = target: TSPO; design: method as in Awad and Gavish, 1987; Verma et al., 1987; settings: radioligand binding experiment results from literatures, ref Awad and Gavish, 1987, Verma et al.; cited from earlier work

SMILES: CCC(C)N(C)C(=O)c1cc2ccccc2c(-c2ccccc2Cl)n1 (stereo not drawn) [^3H-PK11195, reference compound]
Bmax [1]: 143.3 ± 5.4 fmol/mg protein
dissociation rate of 3H-PK11195 [2]: 0.0419 ± 0.0016 min⁻¹

SMILES: CCC(C)N(C)C(=O)c1cc2ccccc2c(-c2ccccc2Cl)n1 (stereo not drawn) [PK11195]
Kd [3]: 0.00197 ± 2e-05 µM
Kd [4]: 161 ± 6.1 µM
EC20 concentration, inhibition of cell proliferation ([5]; BrdU): ~75 µM
EC50 ([5]; Homo sapiens, T98G, read-out: EC50, inhibition of cell proliferation): 81 µM
cell viability [6]: not significantly affected
EC20 concentration, pregnenolone production (rat C6 glioma cells): ~27 µM
increase in pregnenolone production (rat C6 glioma cells; vs vehicle): approximately 50%
EC50 (rat C6 glioma cells; Rattus norvegicus, C6 glioma, read-out: EC50, pregnenolone production): 69 µM
analgesic effect ([7]; 7 μg PK11195 alone, intrathecal): can also produce a certain analgesic effect
effect on analgesic effect of intrathecal 200 μg koumine ([7]; intrathecal 0.7 μg PK11195 with 200 μg koumine): weakened the analgesic effect
analgesic effect ([7]; intrathecal injection of 0.7 μg PK11195): had no analgesic effect

Kd ([3]; SPR single-cycle kinetics, TSPO proteoliposomes on L1 chip, 25°C, Langmuir 1:1 fit, read-out: KD): 0.0126 ± 0.00039 µM
SMILES: C=CC1=C(C)c2cc3[nH]c(cc4nc(cc5[nH]c(cc1n2)c(C)c5CCC(=O)O)C(CCC(=O)O)=C4C)c(C)c3C=C [protoporphyrin IX]
Kd (TSPO): 0.0145 ± 0.0107 µM
